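Briefly, cells in 96-well plates were exposed to five compound concentrations for 48 h, and endpoints were estimated by linear interpolation. At the GI50, growth is halved. Definition used: TGI = concentration required for complete inhibition of growth.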
Experiments:
Experiment in all cases: NCI anticancer screen, dose series, 48 h
786-0 renal = test system: 786-0 renal
A498 renal = test system: A498 renal
A549 NSCLC = test system: A549 NSCLC
ACHN renal = test system: ACHN renal
BT-549 breast = test system: BT-549 breast
CAKI-1 renal = test system: CAKI-1 renal
CCRF-CEM leukemia = test system: CCRF-CEM leukemia
COLO 205 colon = test system: COLO 205 colon
DMS 114 small cell lung = test system: DMS 114 small cell lung
DMS 273 small cell lung = test system: DMS 273 small cell lung
DU-145 prostate = test system: DU-145 prostate
EKVX NSCLC = test system: EKVX NSCLC
HCC-2998 colon = test system: HCC-2998 colon
HCT-116 colon = test system: HCT-116 colon
HCT-15 colon = test system: HCT-15 colon
HL-60(TB) leukemia = test system: HL-60(TB) leukemia
HOP-18 NSCLC = test system: HOP-18 NSCLC
HOP-62 NSCLC = test system: HOP-62 NSCLC
HOP-92 NSCLC = test system: HOP-92 NSCLC
HS 578T breast = test system: HS 578T breast
HT29 colon = test system: HT29 colon
IGROV1 ovarian = test system: IGROV1 ovarian
K-562 leukemia = test system: K-562 leukemia
KM12 colon = test system: KM12 colon
KM20L2 colon = test system: KM20L2 colon
LOX IMVI melanoma = test system: LOX IMVI melanoma
LXFL 529 NSCLC = test system: LXFL 529 NSCLC
M14 melanoma = test system: M14 melanoma
M19-MEL melanoma = test system: M19-MEL melanoma
MALME-3M melanoma = test system: MALME-3M melanoma
MCF7 breast = test system: MCF7 breast
MDA-MB-231 breast = test system: MDA-MB-231 breast
MDA-MB-435 = test system: MDA-MB-435
MOLT-4 leukemia = test system: MOLT-4 leukemia
NCI-H226 lung = test system: NCI-H226 lung
NCI-H23 lung = test system: NCI-H23 lung
NCI-H460 lung = test system: NCI-H460 lung
NCI-H522 lung = test system: NCI-H522 lung
NCI/ADR-RES ovarian = test system: NCI/ADR-RES ovarian
OVCAR-3 ovarian = test system: OVCAR-3 ovarian
OVCAR-4 ovarian = test system: OVCAR-4 ovarian
OVCAR-5 ovarian = test system: OVCAR-5 ovarian
OVCAR-8 ovarian = test system: OVCAR-8 ovarian
PC-3 prostate = test system: PC-3 prostate
RPMI-8226 leukemia = test system: RPMI-8226 leukemia
RXF 393 renal = test system: RXF 393 renal
SF-268 CNS = test system: SF-268 CNS
SF-295 CNS = test system: SF-295 CNS
SF-539 CNS = test system: SF-539 CNS
SK-MEL-2 melanoma = test system: SK-MEL-2 melanoma
SK-MEL-28 melanoma = test system: SK-MEL-28 melanoma
SK-MEL-5 melanoma = test system: SK-MEL-5 melanoma
SK-OV-3 ovarian = test system: SK-OV-3 ovarian
SN12C renal = test system: SN12C renal
SNB-19 CNS = test system: SNB-19 CNS
SNB-75 CNS = test system: SNB-75 CNS
SNB-78 CNS = test system: SNB-78 CNS
SR leukemia = test system: SR leukemia
SW-620 colon = test system: SW-620 colon
T-47D breast = test system: T-47D breast
TK-10 renal = test system: TK-10 renal
U251 CNS = test system: U251 CNS
UACC-257 melanoma = test system: UACC-257 melanoma
UACC-62 melanoma = test system: UACC-62 melanoma
UO-31 renal = test system: UO-31 renal
XF 498 CNS = test system: XF 498 CNS

Q: For `O=c1[nH]cnc2n[nH]nc12`, which TGI (786-0 renal) is on record?
A: > 100 µM

Q: What about the TGI (A498 renal) of the same compound?
A: > 100 µM

Q: What about the TGI (A549 NSCLC) of the same compound?
A: > 100 µM

Q: What about the TGI (ACHN renal) of the same compound?
A: > 100 µM

Q: What about the GI50 (BT-549 breast) of the same compound?
A: 2.65 µM

Q: What about the TGI (BT-549 breast) of the same compound?
A: > 100 µM

Q: And the TGI (CAKI-1 renal)?
A: > 100 µM

Q: What about the TGI (CCRF-CEM leukemia) of the same compound?
A: > 100 µM

Q: And the TGI (COLO 205 colon)?
A: > 100 µM

Q: And the TGI (DMS 114 small cell lung)?
A: 56.1 µM

Q: What about the TGI (DMS 273 small cell lung) of the same compound?
A: > 100 µM

Q: And the GI50 (DU-145 prostate)?
A: 2.89 µM

Q: What about the TGI (DU-145 prostate) of the same compound?
A: > 100 µM

Q: And the TGI (EKVX NSCLC)?
A: > 100 µM

Q: And the TGI (HCC-2998 colon)?
A: > 74.7 µM

Q: What about the TGI (HCT-116 colon) of the same compound?
A: 28.3 µM

Q: And the TGI (HCT-15 colon)?
A: > 100 µM

Q: What about the TGI (HL-60(TB) leukemia) of the same compound?
A: > 56.4 µM

Q: What about the TGI (HOP-18 NSCLC) of the same compound?
A: > 100 µM

Q: And the TGI (HOP-62 NSCLC)?
A: > 100 µM

Q: And the TGI (HOP-92 NSCLC)?
A: > 100 µM

Q: What about the GI50 (HS 578T breast) of the same compound?
A: 6.11 µM

Q: What about the TGI (HS 578T breast) of the same compound?
A: > 100 µM

Q: And the TGI (HT29 colon)?
A: > 100 µM

Q: And the TGI (IGROV1 ovarian)?
A: > 100 µM

Q: What about the TGI (K-562 leukemia) of the same compound?
A: > 100 µM

Q: And the TGI (KM12 colon)?
A: > 100 µM

Q: What about the TGI (KM20L2 colon) of the same compound?
A: > 100 µM

Q: And the TGI (LOX IMVI melanoma)?
A: > 49 µM

Q: What about the TGI (LXFL 529 NSCLC) of the same compound?
A: > 100 µM

Q: And the TGI (M14 melanoma)?
A: 30.8 µM

Q: What about the TGI (M19-MEL melanoma) of the same compound?
A: > 79.9 µM

Q: And the TGI (MALME-3M melanoma)?
A: 46.4 µM

Q: What about the GI50 (MCF7 breast) of the same compound?
A: 24 µM

Q: And the TGI (MCF7 breast)?
A: > 100 µM

Q: And the GI50 (MDA-MB-231 breast)?
A: 1.67 µM

Q: And the TGI (MDA-MB-231 breast)?
A: > 100 µM

Q: And the GI50 (MDA-MB-435)?
A: 0.448 µM

Q: And the TGI (MDA-MB-435)?
A: > 100 µM

Q: What about the TGI (MOLT-4 leukemia) of the same compound?
A: 98.4 µM

Q: What about the TGI (NCI-H226 lung) of the same compound?
A: > 66.1 µM

Q: And the TGI (NCI-H23 lung)?
A: > 100 µM

Q: And the TGI (NCI-H460 lung)?
A: > 69.7 µM

Q: What about the TGI (NCI-H522 lung) of the same compound?
A: 53.3 µM

Q: What about the GI50 (NCI/ADR-RES ovarian) of the same compound?
A: 0.472 µM

Q: What about the TGI (NCI/ADR-RES ovarian) of the same compound?
A: > 100 µM

Q: And the TGI (OVCAR-3 ovarian)?
A: 63.8 µM

Q: And the TGI (OVCAR-4 ovarian)?
A: > 84.8 µM

Q: What about the TGI (OVCAR-5 ovarian) of the same compound?
A: > 100 µM

Q: And the TGI (OVCAR-8 ovarian)?
A: > 100 µM

Q: What about the GI50 (PC-3 prostate) of the same compound?
A: 5.99 µM

Q: And the TGI (PC-3 prostate)?
A: > 100 µM

Q: And the TGI (RPMI-8226 leukemia)?
A: > 65.9 µM

Q: What about the TGI (RXF 393 renal) of the same compound?
A: 14.4 µM

Q: And the TGI (SF-268 CNS)?
A: > 94.3 µM

Q: And the TGI (SF-295 CNS)?
A: > 53.4 µM

Q: What about the TGI (SF-539 CNS) of the same compound?
A: 23.9 µM

Q: And the TGI (SK-MEL-2 melanoma)?
A: 32 µM

Q: What about the TGI (SK-MEL-28 melanoma) of the same compound?
A: > 61.6 µM

Q: And the TGI (SK-MEL-5 melanoma)?
A: > 100 µM

Q: What about the TGI (SK-OV-3 ovarian) of the same compound?
A: > 25.2 µM

Q: And the TGI (SN12C renal)?
A: > 100 µM

Q: What about the TGI (SNB-19 CNS) of the same compound?
A: > 100 µM

Q: And the TGI (SNB-75 CNS)?
A: > 69.8 µM

Q: And the TGI (SNB-78 CNS)?
A: 56.7 µM

Q: What about the TGI (SR leukemia) of the same compound?
A: > 52.7 µM

Q: What about the TGI (SW-620 colon) of the same compound?
A: > 100 µM

Q: What about the GI50 (T-47D breast) of the same compound?
A: 3.49 µM

Q: And the TGI (T-47D breast)?
A: > 100 µM

Q: What about the TGI (TK-10 renal) of the same compound?
A: > 100 µM

Q: What about the TGI (U251 CNS) of the same compound?
A: > 100 µM

Q: And the TGI (UACC-257 melanoma)?
A: > 100 µM

Q: What about the TGI (UACC-62 melanoma) of the same compound?
A: 6.8 µM

Q: And the TGI (UO-31 renal)?
A: > 100 µM

Q: And the TGI (XF 498 CNS)?
A: 83.5 µM
